Source: ChEMBL document CHEMBL4507261, “Data for DCP probe A-192621” (2021)

Key:
[1] = target: GABA-A receptor; anion channel (Rattus norvegicus) (UniProt O09028+P15431+P18506+P18508+P19969+P20236+P23574+P23576+P28471+P28473+P30191+P62813+P63079+P63138+Q91ZM7+Q9ES14); conditions: Compound concentration 10.0 uM
[2] = target: 5-hydroxytryptamine receptor 5A (Homo sapiens) (UniProt P47898); conditions: Compound concentration 10.0 uM
[3] = target: 5-hydroxytryptamine receptor 1D (Homo sapiens) (UniProt P28221); conditions: Compound concentration 10.0 uM
Chain of 5-hydroxytryptamine receptor 1D (Homo sapiens) (P28221 whole entry): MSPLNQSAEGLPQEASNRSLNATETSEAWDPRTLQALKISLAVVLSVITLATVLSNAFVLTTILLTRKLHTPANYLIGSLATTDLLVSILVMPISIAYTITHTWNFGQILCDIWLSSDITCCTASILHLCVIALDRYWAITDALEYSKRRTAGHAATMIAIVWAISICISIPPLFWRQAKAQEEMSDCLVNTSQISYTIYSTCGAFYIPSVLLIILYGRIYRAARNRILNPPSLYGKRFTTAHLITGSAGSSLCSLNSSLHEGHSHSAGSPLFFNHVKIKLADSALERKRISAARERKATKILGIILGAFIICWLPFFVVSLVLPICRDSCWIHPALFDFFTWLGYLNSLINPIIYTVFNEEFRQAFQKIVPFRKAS

[4] = target: T1, Muscarinic acetylcholine receptor M4 (Homo sapiens) (UniProt P08173); conditions: Compound concentration 10.0 uM
T1 sequence (whole entry): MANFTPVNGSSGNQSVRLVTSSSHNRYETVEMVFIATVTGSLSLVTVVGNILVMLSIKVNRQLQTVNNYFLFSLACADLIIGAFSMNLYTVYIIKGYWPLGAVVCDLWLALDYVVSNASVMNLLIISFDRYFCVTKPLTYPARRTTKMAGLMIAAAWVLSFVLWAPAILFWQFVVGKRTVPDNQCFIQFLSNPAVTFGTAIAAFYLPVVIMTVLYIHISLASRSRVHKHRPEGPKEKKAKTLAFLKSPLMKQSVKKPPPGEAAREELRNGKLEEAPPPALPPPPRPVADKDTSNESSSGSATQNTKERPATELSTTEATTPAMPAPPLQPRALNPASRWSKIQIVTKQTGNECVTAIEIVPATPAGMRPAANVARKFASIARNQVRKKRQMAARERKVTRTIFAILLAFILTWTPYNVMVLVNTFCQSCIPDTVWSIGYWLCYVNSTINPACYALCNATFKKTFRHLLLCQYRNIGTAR

[5] = target: T2, Alpha-2B adrenergic receptor (Homo sapiens) (UniProt P18089); conditions: Compound concentration 10.0 uM
T2 sequence (whole entry): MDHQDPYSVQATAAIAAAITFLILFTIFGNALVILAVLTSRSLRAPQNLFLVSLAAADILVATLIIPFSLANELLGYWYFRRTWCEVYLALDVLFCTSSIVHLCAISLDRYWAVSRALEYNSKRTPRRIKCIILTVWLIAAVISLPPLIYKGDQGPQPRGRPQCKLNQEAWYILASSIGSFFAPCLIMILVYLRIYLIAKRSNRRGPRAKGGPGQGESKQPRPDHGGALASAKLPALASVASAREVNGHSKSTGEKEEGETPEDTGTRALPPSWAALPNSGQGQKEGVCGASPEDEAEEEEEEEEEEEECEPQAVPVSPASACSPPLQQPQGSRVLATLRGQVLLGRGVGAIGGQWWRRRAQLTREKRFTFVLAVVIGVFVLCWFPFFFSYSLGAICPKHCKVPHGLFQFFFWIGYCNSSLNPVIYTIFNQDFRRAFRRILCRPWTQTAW

[6] = target: T3, 5-hydroxytryptamine receptor 3A (Homo sapiens) (UniProt P46098); conditions: Compound concentration 10.0 uM
T3 sequence (whole entry): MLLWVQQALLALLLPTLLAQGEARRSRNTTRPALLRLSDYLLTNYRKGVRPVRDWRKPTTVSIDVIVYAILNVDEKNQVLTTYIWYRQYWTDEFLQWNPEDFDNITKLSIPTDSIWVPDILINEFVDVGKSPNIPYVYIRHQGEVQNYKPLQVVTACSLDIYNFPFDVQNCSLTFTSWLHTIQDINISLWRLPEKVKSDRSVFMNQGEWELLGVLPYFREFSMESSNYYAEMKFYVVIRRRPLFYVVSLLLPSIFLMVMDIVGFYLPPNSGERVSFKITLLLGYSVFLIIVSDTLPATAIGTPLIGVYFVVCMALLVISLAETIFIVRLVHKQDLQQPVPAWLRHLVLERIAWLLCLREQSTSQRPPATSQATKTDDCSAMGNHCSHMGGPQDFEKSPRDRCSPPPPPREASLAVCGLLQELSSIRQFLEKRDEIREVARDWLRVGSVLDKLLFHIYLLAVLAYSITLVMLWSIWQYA

[7] = target: D(4) dopamine receptor (Homo sapiens) (UniProt P21917); conditions: Compound concentration 10.0 uM
Chain of D(4) dopamine receptor (Homo sapiens) (P21917 whole entry): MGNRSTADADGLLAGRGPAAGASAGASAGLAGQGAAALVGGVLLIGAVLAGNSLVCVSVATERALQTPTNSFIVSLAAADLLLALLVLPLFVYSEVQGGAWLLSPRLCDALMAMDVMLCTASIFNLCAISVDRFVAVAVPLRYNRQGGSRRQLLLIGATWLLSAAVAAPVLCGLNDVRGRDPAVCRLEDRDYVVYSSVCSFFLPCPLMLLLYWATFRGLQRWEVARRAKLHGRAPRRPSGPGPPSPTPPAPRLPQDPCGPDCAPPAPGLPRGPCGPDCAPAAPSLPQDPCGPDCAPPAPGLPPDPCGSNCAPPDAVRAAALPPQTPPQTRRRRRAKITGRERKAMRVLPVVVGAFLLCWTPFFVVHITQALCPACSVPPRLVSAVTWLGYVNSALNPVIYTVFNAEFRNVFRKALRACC

[8] = target: D(1A) dopamine receptor (Homo sapiens) (UniProt P21728); conditions: Compound concentration 10.0 uM
Chain of D(1A) dopamine receptor (Homo sapiens) (P21728 whole entry): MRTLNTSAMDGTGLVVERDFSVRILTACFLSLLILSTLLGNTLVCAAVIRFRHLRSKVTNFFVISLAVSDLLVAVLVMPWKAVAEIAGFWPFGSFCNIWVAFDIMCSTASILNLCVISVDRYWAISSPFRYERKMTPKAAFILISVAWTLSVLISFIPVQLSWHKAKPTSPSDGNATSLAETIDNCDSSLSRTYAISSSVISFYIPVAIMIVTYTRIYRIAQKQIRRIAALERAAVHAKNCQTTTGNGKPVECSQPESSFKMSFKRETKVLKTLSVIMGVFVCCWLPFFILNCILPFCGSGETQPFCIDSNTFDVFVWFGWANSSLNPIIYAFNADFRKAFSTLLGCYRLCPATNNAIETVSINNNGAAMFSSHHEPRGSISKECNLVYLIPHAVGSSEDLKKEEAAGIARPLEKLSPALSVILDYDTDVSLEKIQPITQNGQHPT

[9] = target: Sigma intracellular receptor 2 (Homo sapiens) (UniProt Q5BJF2); conditions: Compound concentration 10.0 uM
Chain of Sigma intracellular receptor 2 (Homo sapiens) (Q5BJF2 whole entry): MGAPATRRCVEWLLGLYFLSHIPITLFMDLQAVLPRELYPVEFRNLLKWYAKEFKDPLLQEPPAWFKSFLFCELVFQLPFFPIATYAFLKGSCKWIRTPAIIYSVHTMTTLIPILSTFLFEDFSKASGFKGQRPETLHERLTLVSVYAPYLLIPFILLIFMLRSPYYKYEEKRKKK

Endothelin-1 receptor = target: T4, Endothelin-1 receptor (Homo sapiens, UniProt P25101); assay: EDNRA- dependent phosphatidylinositol hydrolysis assay; type: functional
T4 sequence (P25101 whole entry): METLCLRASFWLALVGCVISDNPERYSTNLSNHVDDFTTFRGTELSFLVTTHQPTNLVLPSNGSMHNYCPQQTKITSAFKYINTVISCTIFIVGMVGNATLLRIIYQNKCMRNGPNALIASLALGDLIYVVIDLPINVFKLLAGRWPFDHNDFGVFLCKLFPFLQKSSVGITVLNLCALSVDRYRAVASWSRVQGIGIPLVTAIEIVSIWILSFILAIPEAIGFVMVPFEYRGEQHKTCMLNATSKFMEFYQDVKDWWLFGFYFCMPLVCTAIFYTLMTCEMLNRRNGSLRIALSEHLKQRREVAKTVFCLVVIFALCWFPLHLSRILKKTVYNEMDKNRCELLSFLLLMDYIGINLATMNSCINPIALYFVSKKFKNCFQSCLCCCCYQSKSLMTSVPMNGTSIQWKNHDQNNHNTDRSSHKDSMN

[10] = target: T5, Alpha-1A adrenergic receptor (Homo sapiens) (UniProt P35348); conditions: Compound concentration 10.0 uM
T5 sequence (whole entry): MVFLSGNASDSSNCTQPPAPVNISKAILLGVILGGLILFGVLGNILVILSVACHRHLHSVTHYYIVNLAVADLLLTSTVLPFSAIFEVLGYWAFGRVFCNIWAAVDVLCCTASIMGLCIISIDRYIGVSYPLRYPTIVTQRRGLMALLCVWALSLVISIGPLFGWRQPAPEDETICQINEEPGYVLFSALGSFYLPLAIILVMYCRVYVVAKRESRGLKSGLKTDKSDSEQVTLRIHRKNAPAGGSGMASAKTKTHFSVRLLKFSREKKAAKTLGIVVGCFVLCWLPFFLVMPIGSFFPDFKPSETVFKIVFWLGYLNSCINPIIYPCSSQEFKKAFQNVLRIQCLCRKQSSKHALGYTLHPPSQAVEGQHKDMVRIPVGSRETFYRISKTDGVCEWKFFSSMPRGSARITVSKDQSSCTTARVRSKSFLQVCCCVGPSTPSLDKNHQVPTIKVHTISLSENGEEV

[11] = target: Alpha-2C adrenergic receptor (Homo sapiens) (UniProt P18825); conditions: Compound concentration 10.0 uM
Chain of Alpha-2C adrenergic receptor (Homo sapiens) (P18825 whole entry): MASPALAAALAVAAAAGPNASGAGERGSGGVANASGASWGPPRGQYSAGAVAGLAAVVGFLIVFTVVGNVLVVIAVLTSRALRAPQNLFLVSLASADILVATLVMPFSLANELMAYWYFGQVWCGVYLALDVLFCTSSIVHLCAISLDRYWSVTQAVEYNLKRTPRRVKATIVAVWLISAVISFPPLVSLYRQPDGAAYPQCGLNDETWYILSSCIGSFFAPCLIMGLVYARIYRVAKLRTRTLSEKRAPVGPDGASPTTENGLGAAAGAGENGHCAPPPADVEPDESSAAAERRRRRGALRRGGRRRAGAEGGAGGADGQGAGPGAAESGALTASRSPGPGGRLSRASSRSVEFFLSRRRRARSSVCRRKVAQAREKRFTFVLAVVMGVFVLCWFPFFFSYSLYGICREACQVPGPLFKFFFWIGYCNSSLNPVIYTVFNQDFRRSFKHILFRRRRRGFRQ

[12] = target: Histamine H2 receptor (Homo sapiens) (UniProt P25021); conditions: Compound concentration 10.0 uM
Chain of Histamine H2 receptor (Homo sapiens) (P25021 whole entry): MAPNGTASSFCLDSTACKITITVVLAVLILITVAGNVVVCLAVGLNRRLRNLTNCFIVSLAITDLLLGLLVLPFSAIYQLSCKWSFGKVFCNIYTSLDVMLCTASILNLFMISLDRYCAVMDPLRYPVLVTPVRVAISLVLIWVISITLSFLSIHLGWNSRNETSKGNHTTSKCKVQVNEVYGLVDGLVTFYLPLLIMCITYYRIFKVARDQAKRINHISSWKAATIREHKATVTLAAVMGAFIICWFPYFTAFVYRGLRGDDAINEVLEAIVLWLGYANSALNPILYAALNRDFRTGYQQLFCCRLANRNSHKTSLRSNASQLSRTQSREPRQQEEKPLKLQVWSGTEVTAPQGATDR

Chain of 5-hydroxytryptamine receptor 5A (Homo sapiens) (P47898 whole entry): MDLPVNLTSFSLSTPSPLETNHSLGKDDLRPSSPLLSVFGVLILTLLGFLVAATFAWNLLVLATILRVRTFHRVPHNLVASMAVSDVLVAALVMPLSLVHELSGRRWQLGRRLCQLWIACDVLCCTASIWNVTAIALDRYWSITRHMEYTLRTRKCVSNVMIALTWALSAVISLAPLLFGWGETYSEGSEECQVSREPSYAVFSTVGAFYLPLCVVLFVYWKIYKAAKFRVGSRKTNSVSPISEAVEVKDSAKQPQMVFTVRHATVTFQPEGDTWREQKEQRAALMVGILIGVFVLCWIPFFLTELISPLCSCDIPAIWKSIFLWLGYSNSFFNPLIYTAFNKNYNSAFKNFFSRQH

**Q.** For `CCCOc1ccc([C@H]2[C@H](C(=O)O)[C@@H](c3ccc4c(c3)OCO4)CN2CC(=O)Nc2c(CC)cccc2CC)cc1` [A-192621], which inhibition [1] is on record?
**A.** Its inhibition is 5.57%.

**Q.** What about the inhibition [2] of the same compound?
**A.** Its inhibition is -0.22%.

**Q.** What about the inhibition [3] of the same compound?
**A.** Its inhibition is -3.09%.

**Q.** What about the inhibition [4] of the same compound?
**A.** Its inhibition is 12.5%.

**Q.** What about the inhibition [5] of the same compound?
**A.** The inhibition was 10.4%.

**Q.** What about the inhibition [6] of the same compound?
**A.** Its inhibition is -5.22%.

**Q.** And the inhibition [7]?
**A.** The inhibition was -3.59%.

**Q.** What about the inhibition [8] of the same compound?
**A.** Its inhibition is 17.3%.

**Q.** And the inhibition [9]?
**A.** The inhibition was -7.1%.

**Q.** What about the IC50 (Endothelin-1 receptor) of the same compound?
**A.** The IC50 was > 1000 nM (not active).

**Q.** What about the inhibition [10] of the same compound?
**A.** Its inhibition is -9.09%.

**Q.** What about the inhibition [11] of the same compound?
**A.** The inhibition was 0.5%.

**Q.** What about the inhibition [12] of the same compound?
**A.** Its inhibition is 5.77%.
